# Read-outs that look alike come from different tables or passages of the source.
# Legend:
# [1] = tested on: phospho-STAT-1, -3 and -5 in CD4, CD8 T cells and monocytes (CAR T product, PBMCs); experiment: Intracellular phospho-STAT-1, -3, -5 by flow cytometry in immune cell subsets of CAR T product and PBMCs; format: cell-based, human; settings: for pSTAT-5 inhibition: GM-CSF stimulated PBMC
# Procedure: (§1) Further experiments were performed to look at impacts of JAK inhibitors on STAT phosphorylation in various immune cell subsets.
# CD19 CAR T cells = experiment: CAR T cell cytokine production (Luminex) under CD19 K562, KIP-1 or CD2/3/28 stimulation; settings: for IC50: Homo sapiens, T-cell
# Procedure: Cryopreserved healthy donor CLP CD19 CAR T cells were thawed and rested overnight in 100 U/ml of IL-2 at 1×10^6/ml. 2.5×10^5 CD19 CART cells were plated in 96-well RB plate wells in a total volume of 200 μl of R10 culture media. […] CD19 CART cell cytokine production was allowed to proceed through 72 hours in the presence of stimulator and JAKi or steroid. Following 72 h of culture, 100 μl of the cell supernatant of each well were harvested and stored at −80° C. for later Luminex/Bioplex-200 cytokine analysis. Briefly, stored supernatants were thawed and 50 μl of the sample was assayed for cytokines using a ThermoFisher Procarta Plex 19-plex human cytokine assay kit (ThermoFisher, Carlsbad, CA) according to kit manufacturer's instructions and detected using a BioRad Bioplex-200 instrument. The data points generated from the luminex cytokine assay were transferred to a GraphPad PRISM IC50 dose-response curve analysis to generate IC50 or potency values for the JAKi's and steroids tested.
# CAR-T cells = experiment: CAR-T cell expansion assay (KIP-1 or CD3/CD28 stimulation); settings: for % viability: CD3/CD28
# [2] = cited from earlier work
# [3] = tested on: phospho-STAT-1, -3 and -5 in purified CD14+ monocytes; experiment: Intracellular phospho-STAT-1, -3, -5 by BD PhosphoFlow in purified monocytes; format: cell-based, human
# Procedure: as §1
# [4] = purified CD14+ monocytes, CAR T cell-derived supernatant, 30 min
# [5] = purified CD14+ monocytes, rh-GM-CSF-induced
# [6] = purified CD14+ monocytes, rhIFNg-induced
# [7] = purified CD14+ monocytes, rhIL6-induced
# [8] = purified monocytes, CAR T derived cytokines/supernatant stimulation, 30 min
smiles,measurement,setting,value
O=C(Nc1nc2cccc(-c3ccc(CN4CCS(=O)(=O)CC4)cc3)n2n1)C1CC1 [filgotinib],"inhibitory activity of each p-STAT, CD4 versus CD8 T cells",[1]; CAR T product,stronger inhibitory activity (magnitudes) of each p-STAT in CD4 T cells compared to CD8 T cells
same,Primary Cell IL-6 pSTAT1 signaling (% inhibition),[1]; CD4 CART cells,45%
same,Primary Cell IL-6 pSTAT3 signaling (% inhibition),[1]; CD4 CART cells,50%
same,Primary Cell IL-6 pSTAT5 signaling (% inhibition),[1]; CD4 CART cells,59%
same,Primary Cell IL-6 pSTAT1 signaling (% inhibition),[1]; CD8 CART cells,17%
same,Primary Cell IL-6 pSTAT3 signaling (% inhibition),[1]; CD8 CART cells,38%
same,Primary Cell IL-6 pSTAT5 signaling (% inhibition),[1]; CD8 CART cells,50%
same,pSTAT-5 inhibition,[1]; CD3+ T cells,40%
same,pSTAT-5 inhibition,[1]; CD14+ monocytes,28%
same,"effect on phosphorylated-STAT-1, -STAT-3 and -STAT5 levels",[1]; IL-6 stimulation,"reduction of phosphorylated-STAT-1, -STAT-3 and -STAT5 levels"
same,"Primary cell GM-CSF-pSTAT5, inhibition",[1]; Monocytes within bulk PBMCs,28%
same,Primary Cell IL-6 pSTAT1 signaling (% inhibition),[1]; PBMC CD4 T cells,67%
same,Primary Cell IL-6 pSTAT3 signaling (% inhibition),[1]; PBMC CD4 T cells,52%
same,Primary Cell IL-6 pSTAT5 signaling (% inhibition),[1]; PBMC CD4 T cells,83%
same,Primary Cell IL-6 pSTAT1 signaling (% inhibition),[1]; PBMC CD8 T cells,26%
same,Primary Cell IL-6 pSTAT3 signaling (% inhibition),[1]; PBMC CD8 T cells,37%
same,Primary Cell IL-6 pSTAT5 signaling (% inhibition),[1]; PBMC CD8 T cells,49%
same,Primary Cell IL-6 pSTAT1 signaling (% inhibition),[1]; PBMC Monocytes,50%
same,Primary Cell IL-6 pSTAT3 signaling (% inhibition),[1]; PBMC Monocytes,74%
same,Primary Cell IL-6 pSTAT5 signaling (% inhibition),[1]; PBMC Monocytes,34%
same,"inhibitory activity of each p-STAT, CD4 versus CD8 T cells",[1]; T cells from PBMCs,stronger inhibitory activity (magnitudes) of each p-STAT in CD4 T cells compared to CD8 T cells
same,"Primary cell GM-CSF-pSTAT5, inhibition",[1]; T cells within bulk PBMCs,40%
same,suppression of cytokine production from CAR T cells (breadth and magnitude),CD19 CAR T cells,less effective in the breadth of cytokines suppressed and its potency to suppress particular cytokines
same,"Suppression of cytokine production, GMCSF (IC50)","CD19 CAR T cells; CD3/CD28 stimulation, 72 h",Suppress
same,IC50,"CD19 CAR T cells; 72 h, read-out: Suppression of cytokine production, GMCSF (IC50), K562-CD19 stimulation, 72 h",> 10000 nM
same,IC50,"CD19 CAR T cells; 72 h, read-out: Suppression of cytokine production, GMCSF (IC50), KIP-1 stimulation, 72 h",6440 nM
same,IC50,"CD19 CAR T cells; 72 h, read-out: Suppression of cytokine production, GzB (IC50), CD3/CD28 stimulation, 72 h",7650 nM
same,IC50,"CD19 CAR T cells; 72 h, read-out: Suppression of cytokine production, GzB (IC50), K562-CD19 stimulation, 72 h",> 10000 nM
same,IC50,"CD19 CAR T cells; 72 h, read-out: Suppression of cytokine production, GzB (IC50), KIP-1 stimulation, 72 h",> 10000 nM
same,IC50,"CD19 CAR T cells; 72 h, read-out: Suppression of cytokine production, IFNg (IC50), CD3/CD28 stimulation, 72 h",> 10000 nM
same,IC50,"CD19 CAR T cells; 72 h, read-out: Suppression of cytokine production, IFNg (IC50), K562-CD19 stimulation, 72 h",> 10000 nM
same,IC50,"CD19 CAR T cells; 72 h, read-out: Suppression of cytokine production, IFNg (IC50), KIP-1 stimulation, 72 h",> 10000 nM
same,IC50,"CD19 CAR T cells; 72 h, read-out: Suppression of cytokine production, IL-2Ra (IC50), CD3/CD28 stimulation, 72 h",1890 nM
same,IC50,"CD19 CAR T cells; 72 h, read-out: Suppression of cytokine production, IL-2Ra (IC50), K562-CD19 stimulation, 72 h",4820 nM
same,IC50,"CD19 CAR T cells; 72 h, read-out: Suppression of cytokine production, IL-2Ra (IC50), KIP-1 stimulation, 72 h",277 nM
same,IC50,"CD19 CAR T cells; 72 h, read-out: Suppression of cytokine production, IL-6 (IC50), CD3/CD28 stimulation, 72 h",1710 nM
same,IC50,"CD19 CAR T cells; 72 h, read-out: Suppression of cytokine production, IL-6 (IC50), KIP-1 stimulation, 72 h",716 nM
same,IC50,"CD19 CAR T cells; 72 h, read-out: Suppression of cytokine production, IL-8 (IC50), CD3/CD28 stimulation, 72 h",> 10000 nM
same,IC50,"CD19 CAR T cells; 72 h, read-out: Suppression of cytokine production, IL-8 (IC50), K562-CD19 stimulation, 72 h",543 nM
same,IC50,"CD19 CAR T cells; 72 h, read-out: Suppression of cytokine production, IL-8 (IC50), KIP-1 stimulation, 72 h",564 nM
same,IC50,"CD19 CAR T cells; 72 h, read-out: Suppression of cytokine production, IL-10 (IC50), CD3/CD28 stimulation, 72 h",2010 nM
same,IC50,"CD19 CAR T cells; 72 h, read-out: Suppression of cytokine production, IL-10 (IC50), K562-CD19 stimulation, 72 h",397 nM
same,IC50,"CD19 CAR T cells; 72 h, read-out: Suppression of cytokine production, IL-10 (IC50), KIP-1 stimulation, 72 h",191 nM
same,IC50,"CD19 CAR T cells; 72 h, read-out: Suppression of cytokine production, MCP-1 (IC50), CD3/CD28 stimulation, 72 h",563 nM
same,IC50,"CD19 CAR T cells; 72 h, read-out: Suppression of cytokine production, MCP-1 (IC50), K562-CD19 stimulation, 72 h",858 nM
same,IC50,"CD19 CAR T cells; 72 h, read-out: Suppression of cytokine production, MCP-1 (IC50), KIP-1 stimulation, 72 h",559 nM
same,IC50,"CD19 CAR T cells; 72 h, read-out: Suppression of cytokine production, MIG (IC50), CD3/CD28 stimulation, 72 h",> 10000 nM
same,IC50,"CD19 CAR T cells; 72 h, read-out: Suppression of cytokine production, MIG (IC50), K562-CD19 stimulation, 72 h",1570 nM
same,IC50,"CD19 CAR T cells; 72 h, read-out: Suppression of cytokine production, MIG (IC50), KIP-1 stimulation, 72 h",1380 nM
same,IC50,"CD19 CAR T cells; 72 h, read-out: Suppression of cytokine production, MIP-1a (IC50), CD3/CD28 stimulation, 72 h",> 10000 nM
same,IC50,"CD19 CAR T cells; 72 h, read-out: Suppression of cytokine production, MIP-1a (IC50), K562-CD19 stimulation, 72 h",> 10000 nM
same,IC50,"CD19 CAR T cells; 72 h, read-out: Suppression of cytokine production, MIP-1a (IC50), KIP-1 stimulation, 72 h",> 10000 nM
same,IC50,"CD19 CAR T cells; 72 h, read-out: Suppression of cytokine production, MIP-1b (IC50), CD3/CD28 stimulation, 72 h",> 10000 nM
same,IC50,"CD19 CAR T cells; 72 h, read-out: Suppression of cytokine production, MIP-1b (IC50), K562-CD19 stimulation, 72 h",9820 nM
same,IC50,"CD19 CAR T cells; 72 h, read-out: Suppression of cytokine production, MIP-1b (IC50), KIP-1 stimulation, 72 h",> 10000 nM
same,IC50,"CD19 CAR T cells; 72 h, read-out: Suppression of cytokine production, Perforin (IC50), CD3/CD28 stimulation, 72 h",5460 nM
same,IC50,"CD19 CAR T cells; 72 h, read-out: Suppression of cytokine production, Perforin (IC50), K562-CD19 stimulation, 72 h",> 10000 nM
same,IC50,"CD19 CAR T cells; 72 h, read-out: Suppression of cytokine production, Perforin (IC50), KIP-1 stimulation, 72 h",2110 nM
same,IC50,"CD19 CAR T cells; 72 h, read-out: Suppression of cytokine production, TNFa (IC50), CD3/CD28 stimulation, 72 h",793 nM
same,IC50,"CD19 CAR T cells; 72 h, read-out: Suppression of cytokine production, TNFa (IC50), K562-CD19 stimulation, 72 h",7230 nM
same,IC50,"CD19 CAR T cells; 72 h, read-out: Suppression of cytokine production, TNFa (IC50), KIP-1 stimulation, 72 h",2240 nM
same,"Suppression of cytokine production, IL-6 (IC50)","CD19 CAR T cells; K562-CD19 stimulation, 72 h",Suppress
same,% viability,"CAR-T cells; dose 500 nM, day 4",58.7%
same,% viability,"CAR-T cells; dose 500 nM, day 8",65.7%
same,% viability,"CAR-T cells; dose 500 nM, day 12",84.5%
same,% viability,"CAR-T cells; dose 1000 nM, day 4",73.1%
same,% viability,"CAR-T cells; dose 1000 nM, day 8",70.9%
same,% viability,"CAR-T cells; dose 1000 nM, day 12",81.6%
same,effect on T cell expansion,CAR-T cells; at the doses tested (Table 40),little to no effect
same,Cmax,"[2]; clinical dosing, patient sera, repeat dose studies",1200 ng/mL
same,Protein binding,"[2]; plasma protein binding, reported",~42%
same,"IFN-gamma induction of pSTAT-1, 3 and 5",[3],strongly suppressed
same,pSTAT-5 induction by GM-CSF,[3]; purified CD14+ monocytes,not inhibited
same,"Monocyte-specific pSTAT1 signaling, inhibition",[3]; [4],91%
same,"Monocyte-specific pSTAT3 signaling, inhibition",[3]; [4],100%
same,"Monocyte-specific pSTAT5 signaling, inhibition",[3]; [4],0%
same,"Monocyte-specific pSTAT1 signaling, inhibition",[3]; [5],na/ni
same,"Monocyte-specific pSTAT3 signaling, inhibition",[3]; [5],na/ni
same,"Monocyte-specific pSTAT5 signaling, inhibition",[3]; [5],0%
same,"Monocyte-specific pSTAT1 signaling, inhibition",[3]; [6],100%
same,"Monocyte-specific pSTAT3 signaling, inhibition",[3]; [6],100%
same,"Monocyte-specific pSTAT5 signaling, inhibition",[3]; [6],98%
same,"Monocyte-specific pSTAT1 signaling, inhibition",[3]; [7],na/ni
same,"Monocyte-specific pSTAT3 signaling, inhibition",[3]; [7],51%
same,"Monocyte-specific pSTAT5 signaling, inhibition",[3]; [7],na/ni
same,pSTAT-3 inhibition,[3]; purified monocytes stimulated by IL-6,51%
same,pSTAT1 inhibition,[3]; [8],91%
same,pSTAT3 inhibition,[3]; [8],100%

# From patent publication US12252701B2, “Chimeric antigen receptor T cell therapy” (KITE PHARMA, INC., priority 2020, dated 2025)
